# Results filed as inconclusive are left out. Active and inactive are the calls of the source. No rule for the calls is given here.
# Tested on: Chlamydomonas reinhardtii, Nile Red lipid fluorescence, 72 h
# Assay: algal triacylglycerol accumulation inducers, dose response, qHTS, Chlamydomonas reinhardtii (AID 1159536)
row,SMILES,EC50
1,CCc1ccc(OCCOCCN2CCOCC2)cc1,10.1 µM
2,O=[N+]([O-])c1ccc(CN2CCN(C3CCCC3)CC2)cc1,0.0669 µM
3,CCC(C)c1ccc(OCCN2CCCC2)cc1 (configuration not stated),5.17 µM
4,Cc1cc(C)c(OCCCCN2CCNCC2)c(C)c1,2.62 µM
5,O=C1CC(N2CCN(Cc3ccc4c(c3)OCO4)CC2)C(=O)N1CCc1ccccc1 (configuration not stated),2.63 µM
6,CCC(C)N1CCN(Cc2ccc([N+](=O)[O-])cc2)CC1 (configuration not stated),10.5 µM
7,CN1CCN(C2C3CC4CC(C3)CC2C4)CC1 (configuration not stated),9.7 µM
8,CC1CCCN(C(=O)COc2ccc(Cl)cc2)C1 (configuration not stated),1.26 µM
9,CC(=O)N(C1=C(Nc2ccccc2)C(=O)c2ccccc2C1=O)c1ccccc1,15.2 µM (inactive)
10,c1ccc(CN2CCC(N3CCN(C4CC5CCC4C5)CC3)CC2)cc1 (configuration not stated),9.98 µM
11,c1coc(CN2CCN(C3CCCCCC3)CC2)c1,4.76 µM
12,COc1cccc(N2CCN(Cc3ccc([N+](=O)[O-])cc3)CC2)c1,0.667 µM
13,Oc1ccc(CN2CCN(c3ccccc3Cl)CC2)cc1,0.632 µM
14,Cc1ccc(C(=O)NC(C)C2CC3CCC2C3)s1 (configuration not stated),15.3 µM (inactive)
15,COc1cc(C)nc(NCc2ccccc2)n1,1.33 µM
16,c1ccc(CCc2nc(-c3ccncc3)no2)cc1,5.02 µM
17,Cc1ccc(OCCOCCN2CCOCC2)c([N+](=O)[O-])c1,2.7 µM
18,CC(C)NCC(=O)NC12CC3CC(CC(C3)C1)C2,0.638 µM
19,Brc1ccc2ncnc(N3CCN(Cc4ccccc4)CC3)c2c1,2.02 µM
20,Cc1ccc(CN2CCN(CCO)CC2)cc1,16.1 µM
21,C/C(=C\c1ccccc1)CN1CCN(C)CC1,1.01 µM
22,COc1cc(CN2CCN(Cc3ccccc3)CC2)cc(OC)c1,8.98 µM
23,COc1cccc(CN2CCN(Cc3ccc(F)cc3)CC2)c1OC,0.651 µM
24,O=[N+]([O-])c1ccccc1S(=O)(=O)N1CCN(C2CCN(Cc3ccccc3)CC2)CC1,10.7 µM
25,CN1CCC(N(C)Cc2cccc(Oc3ccccc3)c2)CC1,10.1 µM
26,CCc1ccc(CN2CCN(CCO)CC2)cc1,7.63 µM

row,SMILES,EC50
1,Cc1cc(OCCCCN2CCN(C)CC2)cc(C(C)C)c1,1.92 µM
2,Cc1ccc(C(C)C)cc1OCCCCN1CCOCC1,4.01 µM
3,CC(C)c1ccc(CN2CCN(C)CC2)cc1,3.5 µM
4,C(=C\c1ccccc1)/CN1CCN(C2C3CC4CC(C3)CC2C4)CC1 (configuration not stated),3.99 µM
5,C=CCn1c(SCC(=O)O)nnc1-c1ccc([N+](=O)[O-])cc1,13.6 µM (inactive)
6,OC(COc1ccccc1Br)CN1CCCCC1 (configuration not stated),7.57 µM
7,Cc1cccc(-c2noc(COc3ccc(Br)cc3)n2)c1,9.11 µM (inactive)
8,CCN(CC)CC#Cc1ccc(C#CCN(CC)CC)cc1,4.15 µM
9,O=C(Nc1ccc(Cc2ccncc2)cc1)c1ccc([N+](=O)[O-])cc1Cl,1.21 µM (inactive)
10,O=[N+]([O-])c1ccc(CN2CCN(Cc3ccccc3F)CC2)cc1,8.4 µM
11,Oc1ccc(Br)cc1CN1CCC(N2CCOCC2)CC1,22.8 µM
12,CCS(=O)(=O)N1CCN(C2CCCCCCC2)CC1,5.99 µM
13,Cc1ccc(CN2CCC(C(=O)N3CCN(c4ccccc4F)CC3)CC2)o1,7.9 µM (inactive)
14,COc1cc(Cl)c(S(=O)(=O)NCCCN2CCOCC2)cc1Cl,3.61 µM
15,O=C(Nc1ccccc1C(=O)Nc1ccccc1Cl)c1ccncc1,9.55 µM
16,Cc1ccc(C(=O)Nc2ccccc2C(=O)NC(C)C)cc1[N+](=O)[O-],0.635 µM (inactive)
17,COc1ccc(CNC2CCCC(C)C2)cc1 (configuration not stated),7.06 µM
18,CCCCOc1ccc(CN2CCN(c3ccc([N+](=O)[O-])cc3)CC2)cc1,2.7 µM
19,O=[N+]([O-])c1ccc(CN2CCN(C3CC4CCC3C4)CC2)cc1 (configuration not stated),2.53 µM
20,C=CCc1cc(Cl)ccc1OCCN1CCN(C)CC1,14.1 µM
21,CC(=O)NC1=C(N2CCN(Cc3ccccc3)CC2)C(=O)c2ccccc2C1=O,14.3 µM (inactive)
22,Cc1c(C(=O)Nc2ccc(F)c(F)c2)cccc1[N+](=O)[O-],17.5 µM (inactive)
23,COCCNS(=O)(=O)c1cc(Cl)ccc1OC,2.98 µM (inactive)
24,Cc1ccc2nc(NC(=O)C3CC3)sc2c1,15.1 µM (inactive)
25,CC1CCC(N2CCN(c3ccccc3)CC2)C1 (configuration not stated),0.629 µM
26,CN1CCCN(Cc2ccc([N+](=O)[O-])o2)CC1,15 µM (inactive)

row,SMILES,EC50
1,C/C=C(\C)CN1CCN(C/C=C/c2ccccc2)CC1,1.28 µM
2,CC1CCN(S(=O)(=O)c2ccc(NC(=O)c3cccc([N+](=O)[O-])c3)cc2)CC1,2.7 µM
3,Cc1ccc(C(=O)c2ccc(N3CCN(C)CC3)c(F)c2)cc1C,13.4 µM (inactive)
4,c1ccc(CN2CCN(C3CC4CCC3C4)CC2)cc1 (configuration not stated),10.1 µM
5,COc1ccc(CN2CCN(c3ncnc4sc5c(c34)CCCC5)CC2)cc1,4.83 µM
6,c1ccc(CN2CCN(C3CCCCC3)CC2)cc1,9.9 µM
7,CC(C)NC(=O)c1ccccc1NC(=O)c1ccc(Br)cc1,1.01 µM
8,Cc1ccc(N2CCN(C3CCCCCC3)CC2)cc1,0.649 µM
9,O=C(c1ccc(CN2CCc3ccccc3C2)cc1)N1CCN(c2ccccc2F)CC1,6.04 µM
10,CCOc1c(Cl)cc(C(=O)Nc2cccc([N+](=O)[O-])c2)cc1Cl,13.4 µM (inactive)
11,Fc1ccc(CN2CCN(c3ccccc3Cl)CC2)cc1,1.4 µM
12,Cc1cc(C(C)(C)C)ccc1OCCN1CCN(C)CC1,4.43 µM
13,Clc1ccc(N2CCN(Cc3ccsc3)CC2)cc1,1.27 µM
14,COc1ccccc1N1CCN(Cc2ccc(F)cc2)CC1,2.84 µM
15,COc1ccccc1N1CCN(Cc2ccc(C)cc2)CC1,3.65 µM
16,Clc1ccc(N2CCN(Cc3ccc4c(c3)OCO4)CC2)cc1,1.32 µM
17,CC(C(=O)NCc1ccc(Cl)cc1)N(c1ccccc1)S(C)(=O)=O (configuration not stated),11.3 µM (inactive)
18,Brc1ccc(CN2CCN(c3ccccc3)CC2)cc1,22 µM
19,CN(CCc1ccccc1)C1CCN(Cc2ccccc2)CC1,0.0218 µM
20,COc1cc(CN2CCN(Cc3ccc([N+](=O)[O-])cc3)CC2)cc(OC)c1,3.78 µM
21,c1ccc(N2CCN(CC3CCCCC3)CC2)cc1,1.03 µM
22,Cc1ccc(CN(C)C2CCN(C)CC2)s1,10.2 µM
23,Cc1cc(C)c(NC(=O)COc2ccccc2[N+](=O)[O-])c(C)c1,3.13 µM (inactive)
24,CCCCNc1cc(C)nc(N2CCOCC2)n1,13.1 µM
25,C1=CC2CC1CC2CN1CCN(Cc2ccco2)CC1 (configuration not stated),2.52 µM
26,CN1CCN(Cc2ccc(-c3ccccc3Cl)o2)CC1,3.34 µM

row,SMILES,EC50
1,N#Cc1c(-n2ncnc2-c2cccnc2)sc2c1CCCCC2,2.47 µM (inactive)
2,CC(C)C(NS(=O)(=O)c1cccs1)C(C)C,21.6 µM (inactive)
3,O=[N+]([O-])c1ccc(OCCCCN2CCOCC2)cc1,14.2 µM
4,CC(CCc1ccc(O)cc1)NC1C2CC3CC(C2)CC1C3 (configuration not stated),2.74 µM
5,O=S(=O)(c1ccc(Cl)c(Cl)c1Cl)N1CCN(c2ccc(F)cc2)CC1,0.0144 µM (inactive)
6,COc1ccc(CNC2CCSC2)cc1 (configuration not stated),0.314 µM
7,C=CCc1cccc(C)c1OCCCN1CCN(C)CC1,1.97 µM
8,O=C(Nc1ccc(S(=O)(=O)N2CCCC2)cc1)c1ccc(Cl)cc1Cl,2.32 µM (inactive)
9,Cc1ccc(CN2CCCC(CO)C2)cc1 (configuration not stated),10.1 µM
10,CCOc1ccc(C(=O)NCCNC(=O)c2ccc(OCC)cc2)cc1,19.9 µM (inactive)
11,Clc1ccc(OCCOCCN2CCCC2)c(Br)c1,2.6 µM
12,Cc1cccc(N2CCN(C(=O)C3CCN(CC4CCCCC4)CC3)CC2)c1C,4.62 µM
13,Cc1ccc(OCCCCN2CCCCC2)c(C)c1,11.3 µM
14,Clc1ccc(CN2CCCCCC2)cc1,2.05 µM
15,CCN(CC)CC#CCOc1ccccc1,11.6 µM
16,CC(CNC(=O)c1ccc(C(C)(C)C)cc1)CN(C)C (configuration not stated),10.3 µM
17,COc1ccccc1N1CCN(C2CCN(Cc3cccc(Cl)c3)CC2)CC1,10.1 µM
18,COc1ccccc1NC(=O)N1CCN(c2ccccn2)CC1,4.11 µM
19,O=C(CN1CCCCC1)NC12CC3CC(CC(C3)C1)C2,3.47 µM
20,O=[N+]([O-])c1ccc(CNC2CCCCCC2)cc1,1.88 µM
21,O=C(Nc1cccnc1)c1ccc(S(=O)(=O)c2ccc(Cl)cc2)cc1,6.72 µM (inactive)
22,Clc1cc(Br)ccc1OCCCCN1CCOCC1,1.31 µM
23,Cc1ccc(OCC(O)CN(C)C2CCCCC2)cc1C (configuration not stated),4.42 µM
24,c1coc(CN2CCN(C3CCCCC3)CC2)c1,12.2 µM
25,Cc1ccc(OCCCCN2CCCC2)cc1C,5.2 µM
26,CCC(C)c1ccccc1OCCCCN1CCCC1 (configuration not stated),2.68 µM

row,SMILES,EC50
1,COc1ccc(C(=O)NCCN2CCOCC2)cc1[N+](=O)[O-],5.99 µM (inactive)
2,CCOc1ccc(C2=CSC3=NCCN23)cc1,13.7 µM (inactive)
3,Nn1c(SCC(=O)NC23CC4CC(CC(C4)C2)C3)nnc1-c1ccc(Cl)cc1Cl,7.04 µM
4,Clc1cc(Br)ccc1OCCCN1CCOCC1,4.43 µM
5,O=C1CC(N2CCC(C(O)(c3ccccc3)c3ccccc3)CC2)C(=O)N1c1ccc(F)cc1 (configuration not stated),13.6 µM (inactive)
6,CN1CCCN(Cc2cccc(Oc3ccccc3)c2)CC1,10.1 µM
7,CN(C)c1ccc(NC(=O)Nc2ccc3nc(-c4ccccn4)c(-c4ccccn4)nc3c2)cc1,1.33 µM
8,COc1ccc(C(=O)c2ccc(N3CCN(C)CC3)c([N+](=O)[O-])c2)cc1,1.27 µM (inactive)
9,CCOc1ccc(CN2CCN(c3ccccc3OC)CC2)cc1,1.32 µM
10,CC(C)(C)C1CCC(NCc2ccncc2)CC1 (configuration not stated),3.53 µM
11,Cc1ccc(C)c(N2CCN(Cc3ccc([N+](=O)[O-])cc3)CC2)c1,1.29 µM
12,Nc1ccc(C(=O)Nc2ccc(Cl)cc2Cl)cc1,1.49 µM
13,O=C(Nc1ccc(Br)cc1)c1ccccc1Cl,9.96 µM
14,CCN1CCN(Cc2ccc(N(CC)CC)cc2)CC1,0.498 µM
15,Cc1cc(OCC(O)CN2CCN(CCO)CC2)ccc1C(C)C (configuration not stated),0.81 µM
16,O=[N+]([O-])c1ccc(CN2CCN(c3ccccc3)CC2)cc1,0.175 µM
17,Cc1cc(C)c(S(=O)(=O)N2CCN(C)CC2)cc1Br,15.8 µM
18,c1cc2c(cc1CNC1CCCC1)OCO2,10.7 µM
19,CCN1CCN(C2CCC(c3ccccc3)CC2)CC1 (configuration not stated),1.77 µM
20,Clc1cccc(N2CCN(Cc3ccsc3)CC2)c1,3.96 µM
21,CN1CCN(Cc2ccc3c(c2)Cc2ccccc2-3)CC1,9.99 µM
22,CCN1CCC(N2CCN(c3ccc(Cl)cc3)CC2)CC1,2.59 µM
23,Cc1ccc(C(C)C)cc1OCCOCCN1CCOCC1,2.18 µM
